In ChEMBL document CHEMBL3400074, “Development of 2-amino-5-phenylthiophene-3-carboxamide derivatives as novel inhibitors of Mycobacterium tuberculosis DNA GyrB domain” (Bioorg Med Chem, 2015):

Legend:
[1] = Cytotoxicity against mouse RAW264.7 cells at 100 uM after 48 hrs by MTT assay; assay type: cell-based; conditions: read-out: INH
[2] = Inhibition of Mycobacterium tuberculosis DNA GyrA/B heterotetramer assessed as inhibition of pBR322 supercoiling after 30 mins by gel electrophoresis
DNA gyrase subunit B = DNA gyrase subunit B (Mycobacterium smegmatis, UniProt P0C559); experiment: Inhibition of Mycobacterium smegmatis DNA GyrB domain assessed as inhibition of inorganic phosphate release after 100 mins at room temperature by ATPase assay; design: species or system Mycolicibacterium smegmatis
[3] = molecular target: DNA gyrase subunit B (Mycobacterium smegmatis) (UniProt P0C559); experiment: Binding affinity to Mycobacterium smegmatis DNA GyrB domain assessed as change in melting temperature by differential scanning fluorimetry; conditions: Mycolicibacterium smegmatis
Chain of DNA gyrase subunit B (Mycobacterium smegmatis) (P0C559 2-675 limits assumed): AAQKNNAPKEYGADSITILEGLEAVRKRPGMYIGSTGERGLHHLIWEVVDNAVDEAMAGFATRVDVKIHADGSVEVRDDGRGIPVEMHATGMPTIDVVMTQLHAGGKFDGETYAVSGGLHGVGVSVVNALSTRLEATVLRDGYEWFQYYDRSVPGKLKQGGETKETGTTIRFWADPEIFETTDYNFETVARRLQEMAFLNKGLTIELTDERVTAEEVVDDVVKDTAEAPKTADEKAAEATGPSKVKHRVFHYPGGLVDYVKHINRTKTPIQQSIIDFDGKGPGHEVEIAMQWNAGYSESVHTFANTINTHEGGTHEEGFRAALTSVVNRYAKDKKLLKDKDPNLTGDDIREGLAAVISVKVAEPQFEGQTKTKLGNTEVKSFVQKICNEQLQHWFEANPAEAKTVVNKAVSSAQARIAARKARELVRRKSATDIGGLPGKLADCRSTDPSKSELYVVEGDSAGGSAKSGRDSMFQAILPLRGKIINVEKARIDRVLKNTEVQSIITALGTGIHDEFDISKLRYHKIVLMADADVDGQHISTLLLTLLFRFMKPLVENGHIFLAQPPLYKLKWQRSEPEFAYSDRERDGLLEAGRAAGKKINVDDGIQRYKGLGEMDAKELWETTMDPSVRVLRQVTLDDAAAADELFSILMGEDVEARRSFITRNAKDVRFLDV

Chain of DNA gyrase subunit B (P0C559 whole entry, the tested form may be a part): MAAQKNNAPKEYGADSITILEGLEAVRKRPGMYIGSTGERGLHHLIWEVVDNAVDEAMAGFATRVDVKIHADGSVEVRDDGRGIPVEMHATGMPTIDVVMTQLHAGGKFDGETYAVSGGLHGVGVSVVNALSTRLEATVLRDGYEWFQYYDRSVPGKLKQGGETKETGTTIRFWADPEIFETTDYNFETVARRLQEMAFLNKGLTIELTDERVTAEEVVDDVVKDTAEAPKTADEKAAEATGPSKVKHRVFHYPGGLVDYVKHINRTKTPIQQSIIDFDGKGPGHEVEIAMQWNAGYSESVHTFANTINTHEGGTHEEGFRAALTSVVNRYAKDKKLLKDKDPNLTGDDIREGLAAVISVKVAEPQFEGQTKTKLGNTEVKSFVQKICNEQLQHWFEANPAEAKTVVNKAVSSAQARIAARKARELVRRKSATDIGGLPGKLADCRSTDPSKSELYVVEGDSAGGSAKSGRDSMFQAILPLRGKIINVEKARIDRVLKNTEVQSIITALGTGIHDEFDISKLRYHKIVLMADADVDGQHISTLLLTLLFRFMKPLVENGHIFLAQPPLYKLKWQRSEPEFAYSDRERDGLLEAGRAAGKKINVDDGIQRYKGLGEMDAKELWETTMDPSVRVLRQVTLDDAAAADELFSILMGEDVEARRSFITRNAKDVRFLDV

`Cc1ccc(NC(=O)Nc2sc(-c3ccccc3)cc2C(N)=O)cc1` gave a cytotoxicity at 48 h, 100 µM [1] of 37.6%, an IC50 [2] greater than 25 µM and an IC50 (DNA gyrase subunit B) of 24 µM.
In the case of `NC(=O)c1cc(-c2ccccc2)sc1NC(=O)Nc1ccc([N+](=O)[O-])cc1`, the cytotoxicity at 48 h, 100 µM [1] is reported as 37.3%, the IC50 [2] is reported as 10.9 µM and the IC50 (DNA gyrase subunit B) is reported as 12.8 µM.
With `NC(=O)c1cc(-c2ccccc2)sc1NC(=O)c1ccc(Oc2ccccc2)cc1` the cytotoxicity at 48 h, 100 µM [1] was 35.8%, the IC50 [2] was 8.85 µM and the IC50 (DNA gyrase subunit B) was 17.3 µM.
`NC(=O)c1cc(-c2ccccc2)sc1NC(=O)Nc1ccc(Cl)cc1` showed a cytotoxicity at 48 h, 100 µM [1] of 38.2%, an IC50 [2] of 2.97 µM and an IC50 (DNA gyrase subunit B) of 3.14 µM.
With `NC(=O)c1cc(-c2ccccc2)sc1NC(=S)Nc1ccccc1` the cytotoxicity at 48 h, 100 µM [1] was 32.8%, the IC50 [2] was greater than 25 µM and the IC50 (DNA gyrase subunit B) was 70.3 µM.
`CC(C)NC(=S)Nc1sc(-c2ccccc2)cc1C(N)=O` gave a cytotoxicity at 48 h, 100 µM [1] of 35.5%, an IC50 [2] of 9.25 µM and an IC50 (DNA gyrase subunit B) of 16.2 µM.
Molecule `NC(=O)c1cc(-c2ccccc2)sc1NC(=O)C1CCCC1` has a cytotoxicity at 48 h, 100 µM [1] of 39.7%, an IC50 [2] greater than 25 µM and an IC50 (DNA gyrase subunit B) of 42.2 µM.
Molecule `NC(=O)c1cc(-c2ccccc2)sc1NC(=S)Nc1ccc(Cl)cc1` has a cytotoxicity at 48 h, 100 µM [1] of 36.1%, an IC50 [2] greater than 25 µM and an IC50 (DNA gyrase subunit B) of 71.4 µM.
For `NC(=O)c1cc(-c2ccccc2)sc1NC(=O)NCc1ccccc1`, the cytotoxicity at 48 h, 100 µM [1] was 33%, the IC50 [2] was 8.89 µM and the IC50 (DNA gyrase subunit B) was 10.8 µM.
Molecule `NC(=O)c1cc(-c2ccccc2)sc1NC(=O)c1cccc2ccccc12` has a cytotoxicity at 48 h, 100 µM [1] of 36.8%, an IC50 [2] greater than 25 µM and an IC50 (DNA gyrase subunit B) of 28.6 µM.
Molecule `NC(=O)c1cc(-c2ccccc2)sc1NC(=S)Nc1ccc([N+](=O)[O-])cc1` has a cytotoxicity at 48 h, 100 µM [1] of 40.3%, an IC50 [2] greater than 25 µM and an IC50 (DNA gyrase subunit B) of 32.5 µM.
For `NC(=O)c1cc(-c2ccccc2)sc1NC(=O)c1cc2ccccc2[nH]1`, the cytotoxicity at 48 h, 100 µM [1] was 36.2%, the IC50 [2] was 18.2 µM and the IC50 (DNA gyrase subunit B) was 22 µM.
With `CCCC(=O)Nc1sc(-c2ccccc2)cc1C(N)=O` the cytotoxicity at 48 h, 100 µM [1] was 39.8%, the IC50 [2] was 3.14 µM and the IC50 (DNA gyrase subunit B) was 3.57 µM.
In the case of `NC(=O)c1cc(-c2ccccc2)sc1NC(=O)c1ccc([N+](=O)[O-])cc1`, the cytotoxicity at 48 h, 100 µM [1] is reported as 35.9%, the IC50 [2] is reported as 6.77 µM and the IC50 (DNA gyrase subunit B) is reported as 8.91 µM.
Molecule `CC(C)NC(=O)Nc1sc(-c2ccccc2)cc1C(N)=O` has a cytotoxicity at 48 h, 100 µM [1] of 36.1%, an IC50 [2] of 6.17 µM and an IC50 (DNA gyrase subunit B) of 6.47 µM.
Work on `NC(=O)c1cc(-c2ccccc2)sc1NC(=S)Nc1ccc(F)cc1` yielded a cytotoxicity at 48 h, 100 µM [1] of 32.1%, an IC50 [2] greater than 25 µM and an IC50 (DNA gyrase subunit B) of 48.9 µM.
Work on `NC(=O)c1cc(-c2ccccc2)sc1NC(=O)C1CCCCC1` yielded a cytotoxicity at 48 h, 100 µM [1] of 39%, an IC50 [2] of 9.83 µM and an IC50 (DNA gyrase subunit B) of 10.2 µM.
Work on `CO[C@@H]1[C@@H](OC(N)=O)[C@@H](O)[C@H](Oc2ccc3c(O)c(NC(=O)c4ccc(O)c(CC=C(C)C)c4)c(=O)oc3c2C)OC1(C)C` [NOVOBIOCIN] yielded a cytotoxicity at 48 h, 100 µM [1] of 81.7%.
With `NC(=O)c1cc(-c2ccccc2)sc1NC(=O)c1cccs1` the IC50 [2] was 1.16 µM and the IC50 (DNA gyrase subunit B) was 1.5 µM.
Work on `CC(=O)Nc1sc(-c2ccccc2)cc1C(N)=O` yielded a cytotoxicity at 48 h, 100 µM [1] of 37.5%, an IC50 [2] of 11.8 µM and an IC50 (DNA gyrase subunit B) of 19.1 µM.
`NC(=O)c1cc(-c2ccccc2)sc1NC(=O)Nc1ccc(F)cc1` showed a cytotoxicity at 48 h, 100 µM [1] of 33.7%, an IC50 [2] of 9.88 µM and an IC50 (DNA gyrase subunit B) of 11.5 µM.
`Cc1ccc(NC(=S)Nc2sc(-c3ccccc3)cc2C(N)=O)cc1` gave a cytotoxicity at 48 h, 100 µM [1] of 34.8%, an IC50 [2] of 2.97 µM and an IC50 (DNA gyrase subunit B) of 2.46 µM.
In the case of `NC(=O)c1cc(-c2ccccc2)sc1NC(=O)c1ccc(Cl)cc1`, the cytotoxicity at 48 h, 100 µM [1] is reported as 38.5%, the IC50 [2] is reported as 5.82 µM and the IC50 (DNA gyrase subunit B) is reported as 6.69 µM.
In the case of `NC(=O)c1cc(-c2ccccc2)sc1NC(=O)Nc1ccc(Br)cc1`, the cytotoxicity at 48 h, 100 µM [1] is reported as 37.6%, the IC50 [2] is reported as greater than 25 µM and the IC50 (DNA gyrase subunit B) is reported as 12.2 µM.
With `CCC(=O)Nc1sc(-c2ccccc2)cc1C(N)=O` the cytotoxicity at 48 h, 100 µM [1] was 39.4%, the IC50 [2] was 5.62 µM and the IC50 (DNA gyrase subunit B) was 11.8 µM.
Molecule `NC(=O)c1cc(-c2ccccc2)sc1NC(=O)Nc1ccccc1` has a cytotoxicity at 48 h, 100 µM [1] of 37.3%, an IC50 [2] of 1.32 µM and an IC50 (DNA gyrase subunit B) of 1.83 µM.
For `NC(=O)c1cc(-c2ccccc2)sc1NC(=S)Nc1ccc(Br)cc1`, the cytotoxicity at 48 h, 100 µM [1] was 35.6%, the IC50 [2] was 9.63 µM and the IC50 (DNA gyrase subunit B) was 10.9 µM.
`NC(=O)c1cc(-c2ccccc2)sc1NC(=O)c1ccccc1` gave a ΔTm [3] of 2.5 °C, a cytotoxicity at 48 h, 100 µM [1] of 37.6% and an IC50 [2] of 0.76 µM. For the same molecule, the IC50 (DNA gyrase subunit B) was 0.86 µM.
Work on `NC(=O)c1cc(-c2ccccc2)sc1NC(=S)NCc1ccccc1` yielded a cytotoxicity at 48 h, 100 µM [1] of 36.1%, an IC50 [2] of 17.8 µM and an IC50 (DNA gyrase subunit B) of 28.3 µM.
In the case of `NC(=O)c1cc(-c2ccccc2)sc1NC(=O)c1cnccn1`, the cytotoxicity at 48 h, 100 µM [1] is reported as 34.3%, the IC50 [2] is reported as greater than 25 µM and the IC50 (DNA gyrase subunit B) is reported as 18.4 µM.
